The target of one data set is T1, Androgen receptor (Homo sapiens, UniProt P10275).
T1 sequence (P10275 whole entry): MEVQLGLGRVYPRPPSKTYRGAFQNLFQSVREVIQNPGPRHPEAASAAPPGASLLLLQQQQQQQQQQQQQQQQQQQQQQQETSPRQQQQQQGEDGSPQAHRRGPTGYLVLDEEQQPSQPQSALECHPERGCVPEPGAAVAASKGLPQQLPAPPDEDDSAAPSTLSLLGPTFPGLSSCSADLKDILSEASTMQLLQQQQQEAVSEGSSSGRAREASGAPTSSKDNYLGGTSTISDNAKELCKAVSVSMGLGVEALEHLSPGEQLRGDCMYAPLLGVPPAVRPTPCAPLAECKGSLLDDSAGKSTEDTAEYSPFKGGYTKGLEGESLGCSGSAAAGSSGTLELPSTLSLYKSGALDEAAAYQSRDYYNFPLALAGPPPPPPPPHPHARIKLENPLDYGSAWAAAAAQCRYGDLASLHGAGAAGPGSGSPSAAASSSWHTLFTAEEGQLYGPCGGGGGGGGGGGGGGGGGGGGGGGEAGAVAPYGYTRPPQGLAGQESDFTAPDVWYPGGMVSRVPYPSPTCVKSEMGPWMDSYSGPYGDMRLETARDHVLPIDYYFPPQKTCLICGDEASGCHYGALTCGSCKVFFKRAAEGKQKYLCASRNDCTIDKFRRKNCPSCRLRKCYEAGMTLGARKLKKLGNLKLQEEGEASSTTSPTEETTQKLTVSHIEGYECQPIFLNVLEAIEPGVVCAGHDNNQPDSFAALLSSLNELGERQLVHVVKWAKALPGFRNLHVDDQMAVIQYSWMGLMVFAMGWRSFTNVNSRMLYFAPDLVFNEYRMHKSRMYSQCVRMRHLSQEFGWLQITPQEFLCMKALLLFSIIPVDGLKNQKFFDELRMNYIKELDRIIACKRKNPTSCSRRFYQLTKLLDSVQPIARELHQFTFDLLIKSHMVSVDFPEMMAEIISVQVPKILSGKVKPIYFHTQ
Put plainly: Antagonist activity at AR in human MDA-kb2 cells co-transfected with MMTV-luc assessed as decrease in DHT-induced luciferase activity by reporter gene assay. It counts as functional, cell-based.

In data set [1] the test system is Rattus norvegicus. The data set is described as follows: Drug level in Wistar rat blood at 200 mg/kg. It counts as ADME, organism-based. Set-up: dose 200 mg/kg. To be noted: in vivo.
Data set [2] concerns Rattus norvegicus. The data set is described as follows: Drug level in Wistar rat blood at 10 g/kg. The class given is ADME, organism-based. Conditions: in vivo, 10000 mg/kg.

In the case of `CC(=O)Cc1ccc(O)cc1`, the IC50 on Androgen receptor (read-out: IC50) was 420 µM; on Androgen receptor (read-out: pIC50 (converted)) it was 417 µM. `CC(C)(C)CC(C)(C)c1ccc(O)cc1` displayed a Drug uptake with Rattus norvegicus [1] of 80 ng/mL. The molecule `CC(=O)CCc1ccc(O)cc1` [RASPBERRYKETONE] came in with a Drug uptake with Rattus norvegicus [2] of 4000 ng/mL. As for `COc1cc(CCC(C)=O)ccc1O` [ZINGERONE], the IC50 on Androgen receptor (read-out: IC50) was 153 µM; on Androgen receptor (read-out: pIC50 (converted)) it was 151 µM.

(Values after ChEMBL document CHEMBL1156958, “Effect of essential oils, such as raspberry ketone and its derivatives, on antiandrogenic activity based on in vitro reporter gene assay” (Bioorg Med Chem Lett, 2010).)
